The values that follow come from US20190388513A1, “OIL BASED FORMULATIONS FOR SUBLINGUAL AND BUCCAL DELIVERY” (BIOLINGUS IP LLC, priority 2017, published 2019).

A short description of series [1]: Sublingual resveratrol: plasma resveratrol levels (Cmax, AUC) in rats, LC-MS/MS (Example 7). The series is classed as in vivo. To be noted: sublingual 10 mg in oil formulation (CSSR6d) versus oral 10 mg in sugar syrup, SD rats, up to 24 hours. On the procedure: Resveratrol was suspended in 50% sugar solution and the mixture spun until homogenous for oral ingestion. Two groups of each three SD rats were treated. The treatment groups were administered as follows: 1) sublingual resveratrol in oil formulation (Group 1: SL-resveratrol 10 mg in oil formulation); 2) oral administered resveratrol in sugar syrup (Group 2: OP resveratrol 10 mg in sugar syrup). Nine blood sampling time points up to 24 hours post dosing per anima […]. Plasma samples bio analysis was performed with LC-MS/MS method.

In series [2] the test system is diabetic mice. The series can be described thus: Sublingual insulin aspart study: blood glucose in diabetic mice (Example 1). Type of series: in vivo, mice (strain C57/BL6). To be noted: sublingual 100 U/kg insulin aspart in TPMCEu oil, without exenatide, versus SC insulin aspart 1 IU/kg. On the procedure: For the experiments described below, mice of approximately 60 g were used. 5 μL of the resulting oil mixture comprising Insulin Aspart was placed underneath the tongue of anesthetised diabetic mice. […] Five groups of five mice were treated. […] These were compared to 4) 1 IU/kg subcutaneously administered insulin aspart (SC-Insulin aspart) and 5) sublingual oil placebo ([…]).

The subject of series [3] is diabetic mice. The series can be described thus: Sublingual insulin glargine study, solid dosage formulation: blood glucose in diabetic mice (Example 2). The series is classed as in vivo, mice (strain C57/BL6). To be noted: sublingual insulin glargine 10 or 50 IU/kg absorbed on solid dosage formulation, versus SC insulin glargine 1 IU/kg. On the procedure: One solid dosage formulation was placed underneath the tongue of anesthetised diabetic mice. Blood glucose was measured at 0 h, 1 h, 2 h, 4 h, 8 h, 20 h and 24 h.
Four groups of five mice were treated. The treatment groups were administered as follows: 1) sublingual solid dosage formulation placebo (Group 1: SL-CSSR 4; wherein “CSSR-4” means a solid formulation containing vitamin E, PEG 200 and flavouring oils). 2) 1 IU/kg subcutaneously administered insulin glargine (Group 2: SC-Insulin glargine 1 IU/kg); 3) 10 IU/kg sublingually administered insulin glargine (Group 3: SL-Insulin glargine 10 IU/kg); and 4) 50 IU/kg sublingually administered insulin glargine (Group 4: SL-Insulin glargine 50 IU/kg). For animal studies using solid formulations, tablets were dissolved in water to form a gel. The gel was then placed under the tongue of the mice instead of the tablet.

Take `Oc1ccc(C=Cc2cc(O)cc(O)c2)cc1` [resveratrol]: the “Absorbability relative to orally administered resveratrol (Cmax and AUC of blood resveratrol levels)” value in series [1] fell in the range of 20 to 40 times.

Consider insulin aspart, for which the “Blood glucose levels / AUC0-240min, compared with subcutaneous delivery” value with diabetic mice [2] is on record as “comparable to subcutaneous delivery of insulin aspart”.

insulin glargine: the “Blood glucose levels 0-24 h, compared with subcutaneous delivery” value in the series on diabetic mice [3] was “comparable to subcutaneous delivery of insulin glargine”.
